Among the data in paper PMC11972452 (ACS infectious diseases, 2024) are KI (inactivation) values, retold here.

The structures appear in SMILES notation.

The experiment has as its target OXA-58 (Acinetobacter baumannii, UniProt Q2TR58). The experiment in a line: time-resolved X-ray crystallography of the acyl-enzyme complex. The note with it: read-out: Ki. The class given is biochemical.

Sequence of OXA-58 (Q2TR58 19-280): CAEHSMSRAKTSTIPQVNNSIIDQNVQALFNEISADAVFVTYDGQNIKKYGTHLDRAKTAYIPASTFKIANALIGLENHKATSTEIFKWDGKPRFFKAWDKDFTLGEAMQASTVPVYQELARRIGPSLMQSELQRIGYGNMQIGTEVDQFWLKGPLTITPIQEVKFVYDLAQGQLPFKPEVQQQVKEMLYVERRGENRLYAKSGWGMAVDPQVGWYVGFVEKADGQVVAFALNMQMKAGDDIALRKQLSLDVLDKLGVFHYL

With `CC(O)[C@H]1C(=O)N2C(C(=O)O)=C(S[C@H]3CNC(C(=O)N(C)C)C3)C[C@]12C` (stereo partly shown) [NA-1-157, NA-1–157], the KI (inactivation) was 1900 ± 300 nM.
